One data set concerns CHO. Kind of data set: Cytotoxicity against CHO cells by MTT assay. The format is cell-based. As to conditions: Cricetulus griseus.
Data set [1] in a line: Selectivity index, ratio of IC50 for CHO cells to IC50 for chloroquine sensitive Plasmodium falciparum NF54. The format is toxicity, cell-based. As to conditions: hamster, read-out: Ratio IC50.
Data set [2] has as its system Plasmodium falciparum. As to the kind of experiment: Antiplasmodial activity against multidrug resistant Plasmodium falciparum Dd2 by spectroscopic method. The data set is classed as functional, organism-based.
Data set [3] deals with Plasmodium falciparum. Kind of data set: Antiplasmodial activity against chloroquine sensitive Plasmodium falciparum NF54 by spectroscopic method. The format is functional, organism-based.
For data set [4], the system named is Plasmodium falciparum Dd2. Kind of data set: Inhibition of voltage-gated calcium channel in Plasmodium flaciparum Dd2 cells assessed as reversal of choloroquine resistance at 1 uM relative to control. On the set-up: scale not given: the % may be the effect or the level left.
The species entered for a further data set is Rattus norvegicus. As to the kind of experiment: Inhibition of voltage-gated calcium channel in Wistar rat synaptoneurosomes at 100 uM after 30 mins by fluorescent ratiometric indicator method.
The subject of data set [5] is Plasmodium falciparum Dd2. Kind of data set: Inhibition of voltage-gated calcium channel in Plasmodium flaciparum Dd2 cells assessed as potentiation of choloroquine induced antimalarial activity by measuring ratio of chloroquine IC50 in presence to absence of compound at 1 uM.
The nature of data set [6]: Inhibition of voltage-gated calcium channel in Wistar rat synaptoneurosomes after 30 mins by fluorescent ratiometric indicator method.
The subject of data set [7] is Plasmodium falciparum NF54. Kind of data set: Inhibition of voltage-gated calcium channel in Plasmodium flaciparum NF54 cells assessed as potentiation of choloroquine induced antimalarial activity by measuring chloroquine IC50 in presence of compound at 1 uM.
Data set [8] has as its system Plasmodium falciparum Dd2. Kind of data set: Inhibition of voltage-gated calcium channel in Plasmodium flaciparum Dd2 cells assessed as reversal of choloroquine resistance at 0.5 uM relative to control. Also noted: scale not given: the % may be the effect or the level left.
Data set [9] deals with Plasmodium falciparum Dd2. Kind of data set: Inhibition of voltage-gated calcium channel in Plasmodium flaciparum Dd2 cells assessed as reversal of choloroquine resistance at 0.8 uM relative to control. On the set-up: scale not given: the % may be the effect or the level left.

The source made the active and inactive calls. No cut-off for these calls is given here.

A word on the IC50: it is the midpoint of a concentration-inhibition curve. Usually inhibition stands for the relative decrease from the control value, in per cent.

As for `CN(C)c1cccc2cc(S(=O)(=O)NCCN3C4C5C6CC7C8C6C4C8C3(O)C75)ccc12` (stereo unspecified), the IC50 in the data set with CHO amounted to 119 µM; in the data set with Plasmodium falciparum [2], 6.25 µM; in the data set on Plasmodium falciparum [3] it was 3.76 µM; in data set [6], 0.48 µM. Moreover, the selectivity ratio in data set [1] came to 31.7. The Activity in [4] came out at 81%. For the same molecule, the inhibition in the data set listed under Rattus norvegicus is more than 95%. Besides, the Ratio IC50 in data set [5] is 0.19. In addition, the outcome in [7] was inactive.

`CCN(CC)CCCC(C)Nc1ccnc2cc(Cl)ccc12` (stereo unspecified) [CHLOROQUINE]: the midpoint of inhibition in the data set with CHO, the IC50, lay at 35.8 µM.

Turning to `N#Cc1c2ccccc2cn1CCCNC12CC3CC(CC(C3)C1)C2`, the IC50 in the data set on CHO came out at 8.2 µM; with Plasmodium falciparum [2], 3.89 µM; in the data set on Plasmodium falciparum [3], 3.83 µM; in data set [6] it was 100 µM. In data set [1], the selectivity ratio came out at 2.1. Further, the Activity in [4] was determined as 42%. Besides, the inhibition in the data set filed under Rattus norvegicus came out at 54%. In addition, the Ratio IC50 in data set [5] was determined as 0.58. Also, in data set [7], the outcome was inactive.

`O=C(OCCNC12OC3C4C5CC(C6C5C3C61)C42)c1cccc(/C=C/[N+](=O)[O-])c1` (stereo unspecified): the IC50 is more than 254 µM in the data set on CHO, 34.5 µM with Plasmodium falciparum [2], 26.2 µM with Plasmodium falciparum [3] and 0.98 µM in [6]. Further, the selectivity ratio in data set [1] is more than 9.7. Moreover, the Activity in [4] stood at 45%. Moreover, the inhibition in the data set filed under Rattus norvegicus was more than 95%. Further, the Ratio IC50 in [5] came out at 0.55. Further, the result in [7] was inactive.

`c1ccc(CNC23OC4C5C6CC(C7C6C4C72)C53)cc1` (stereo unspecified): the IC50 with CHO was more than 10 µM; in the data set with Plasmodium falciparum [2] it was more than 10 µM; in the data set with Plasmodium falciparum [3], more than 10 µM; in [6] it was 86 µM. In addition, in the data set listed under Rattus norvegicus, the inhibition came out at 52%. Moreover, the outcome in [7] was inactive.

In the case of `O=[N+]([O-])c1ccc(NCCCNC23CC4CC(CC(C4)C2)C3)c([N+](=O)[O-])c1`, the IC50 in the data set with CHO was determined as 8.01 µM; with Plasmodium falciparum [2] it was 18.8 µM; in the data set on Plasmodium falciparum [3], 1.13 µM. Also, the selectivity ratio in [1] came to 7.1. In the data set filed under Rattus norvegicus, the inhibition amounted to 12%.

In the case of `COc1ccc(CCN(C)CCCC(C#N)(c2ccc(OC)c(OC)c2)C(C)C)cc1OC` (stereo unspecified), the results for the Activity in data set [8], in [9] and in [4] were 47%, 63% and 73%, respectively. In addition, the Ratio IC50 in [5] was found to be 0.27.

Consider `OC12C3C4CC5C6C4C1C6C(C53)N2CCN1CCN(Cc2ccccc2)CC1` (stereo unspecified), for which the IC50 in the data set on CHO is more than 265 µM; in the data set on Plasmodium falciparum [2] it was 6.28 µM; in the data set with Plasmodium falciparum [3], 9.09 µM; in data set [6] it was 100 µM. Moreover, the selectivity ratio in [1] is more than 29.1. For the same molecule, in data set [4], the Activity was found to be 19%. Besides, the inhibition in the data set listed under Rattus norvegicus was found to be 51%. The Ratio IC50 in [5] is 0.81. Also, the outcome in data set [7] was inactive.

With `O=[N+]([O-])c1ccc(CNC23CC4CC(CC(C4)C2)C3)cc1`, the IC50 in the data set on CHO was more than 349 µM; in the data set on Plasmodium falciparum [3], 74 µM. Moreover, the selectivity ratio in data set [1] was more than 4.7. Moreover, the inhibition in the data set listed under Rattus norvegicus was found to be 86%.

`COc1ccc(CNC23CC4CC(CC(C4)C2)C3)cc1`: the IC50 in the data set on CHO was more than 368 µM; in the data set with Plasmodium falciparum [3] it was 39.4 µM. Besides, in [1], the selectivity ratio was more than 9.4. Moreover, in the data set listed under Rattus norvegicus, the inhibition came out at 71%.

Take `c1ccc(CNC23CC4CC(CC(C4)C2)C3)cc1`: the IC50 with CHO was more than 414 µM; in the data set on Plasmodium falciparum [3] it was 126 µM. Further, the selectivity ratio in data set [1] was more than 3.3. Besides, in the data set filed under Rattus norvegicus, the inhibition was 40%.

`CN(C)c1cccc2c(S(=O)(=O)NCCCNC34CC5CC(CC(C5)C3)C4)cccc12`: the IC50 in the data set with CHO was found to be 7.4 µM; in the data set on Plasmodium falciparum [2], 7.01 µM; in the data set on Plasmodium falciparum [3] it was 2.83 µM; in data set [6], 0.27 µM. For the same molecule, in [1], the selectivity ratio was found to be 2.6. In addition, in [4], the Activity turned out to be 65%. In addition, in the data set filed under Rattus norvegicus, the inhibition was more than 95%. Moreover, the Ratio IC50 in data set [5] came out at 0.35. Besides, the outcome in data set [7] was inactive.

With `COCCOC(=O)C1=C(C)NC(C)=C(C(=O)OC(C)C)C1c1cccc([N+](=O)[O-])c1` (stereo unspecified) [NIMODIPINE], the IC50 in data set [6] amounted to 0.008 µM.

Turning to `OC12C3C4CC5C6C4C1C6C(C53)N2Cc1ccccc1` (stereo unspecified), the IC50 with CHO was 84.8 µM; in the data set on Plasmodium falciparum [2] it was 13.3 µM; in the data set on Plasmodium falciparum [3], 7.62 µM; in [6] it was 35 µM. For the same molecule, the selectivity ratio in [1] was 11.1. Moreover, the Activity in data set [4] was 64%. Besides, the inhibition in the data set listed under Rattus norvegicus is more than 95%. Further, the Ratio IC50 in data set [5] came to 0.36. Also, the outcome in [7] was inactive.

On to `O=[N+]([O-])c1ccc(CNC23OC4C5C6CC(C7C6C4C72)C53)cc1` (stereo unspecified), for which the IC50 with CHO is more than 322 µM; in the data set with Plasmodium falciparum [2], 54.8 µM; in the data set with Plasmodium falciparum [3] it was 0.718 µM. Moreover, in data set [1], the selectivity ratio was more than 449. Moreover, the Activity in data set [4] came to 25%. The inhibition in the data set filed under Rattus norvegicus amounted to 48%. Also, in [5], the Ratio IC50 was 0.65. Further, the outcome in data set [7] was inactive.

The values are drawn from ChEMBL document CHEMBL3758159, “Polycyclic amines as chloroquine resistance modulating agents in Plasmodium falciparum” (Bioorg Med Chem Lett, 2016).
